These results are taken from patent US6339045B1, “N-(unsubstituted or substituted)-4-substituted-6-(unsubstituted or substituted)phenoxy-2-pyridinecarboxamides or thiocarboxamides, processes for producing the same, and herbicides” (Kureha Kagaku Kogyo Kabushiki Kaisha, priority 1995, dated 2002).

What all share (test): Herbicidal effect by foliage and soil treatment
Type in all cases: in vivo
What all share (conditions): 10 g ai/10a, evaluated after 14 days

The subject of assay [1] is black nightshade (Solanum nigrum). In a few lines:
(§1)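 Post-emergence spray, cotyledon to bifoliate stage; Tween 20/water vehicle, fixed dose per area; greenhouse 19–25 °C; 14 d; visual growth rating vs untreated.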

In assay [2] the test system is cleavers (Galium aparine). In a few lines: as §1
Assay [3] deals with common blackjack (Bidens pilosa). Summed up:
as §1

The subject of assay [4] is common chickweed (Stellaria media). In a few lines:
as §1

The test system of assay [5] is field bindweed (Convolvulus arvensis). Summed up:
as §1

Assay [6] deals with ivyleafspeedwell (Veronica hederaefolia). In a few lines: as §1
In assay [7] the test system is kediock (Sinapis arvensis). Summed up:
as §1

The test system of assay [8] is redroot pigweed (Amaranthus retroflexus). Summed up:
as §1

In assay [9] the test system is sicklepod (Cassia obtusifolia). In a few lines: as §1
The test system of assay [10] is velvetleaf (Abutilon theophrasti). In a few lines:
as §1

The subject of assay [11] is wild chamomile (Matricaria chamomilla). Summed up:
as §1

For the compound `CC(C)NC(=O)c1cc(N(C)C)cc(Oc2cccc(C(F)(F)F)c2)n1` [Compound I-57, N-(i-propyl)-4-dimethylamino-6-{3-(trifluoromethyl)phenoxy}-2-pyridine carboxamide], the “herbicidal activity rating, SN (Solanum nigrum)” value (shortened to “herbicidal activity rating, SN”) in assay [1] is given as 5 (percentage of weeds killed was not less than 80%). Moreover, the “herbicidal activity rating, GA (Galium aparine)” value (from here on “herbicidal activity rating, GA”) in assay [2] is on record as 5 (percentage of weeds killed was not less than 80%). Besides, the “herbicidal activity rating, BP (Bidens pilosa)” value (“herbicidal activity rating, BP” for short) in assay [3] is reported as 5 (percentage of weeds killed was not less than 80%). In addition, in assay [4], the “herbicidal activity rating, SM (Stellaria media)” value (shortened to “herbicidal activity rating, SM”) was 4 (percentage of weeds killed was not less than 60% and less than 80%). Moreover, in [5], the “herbicidal activity rating, CA (Convolvulus arvensis)” value (“herbicidal activity rating, CA” below) is 4 (percentage of weeds killed was not less than 60% and less than 80%). The “herbicidal activity rating, VH (Veronica hederaefolia)” value (“herbicidal activity rating, VH” below) in assay [6] is on record as 5 (percentage of weeds killed was not less than 80%). Also, in [7], the “herbicidal activity rating, SA (Sinapis arvensis)” value (from here on “herbicidal activity rating, SA”) is given as 5 (percentage of weeds killed was not less than 80%). Besides, the “herbicidal activity rating, AR (Amaranthus retroflexus)” value (“herbicidal activity rating, AR” for short) in [8] is on record as 5 (percentage of weeds killed was not less than 80%). For the same compound, the “herbicidal activity rating, CO (Cassia obtusifolia)” value (“herbicidal activity rating, CO” for short) in [9] is listed as 5 (percentage of weeds killed was not less than 80%). Further, the “herbicidal activity rating, AT (Abutilon theophrasti)” value in assay [10] was 4 (percentage of weeds killed was not less than 60% and less than 80%). In addition, the “herbicidal activity rating, MC (Matricaria chamomilla)” value (“herbicidal activity rating, MC” for short) in assay [11] was 3 (percentage of weeds killed was not less than 40% and less than 60%).
As to `CC(C)NC(=O)c1cc(N(C)Cc2ccccc2)cc(Oc2cccc(C(F)(F)F)c2)n1` [Compound I-58, N-(i-propyl)-4-{methyl(phenylmethyl)amino}-6-{3-(trifluoromethyl)phenoxy}-2-pyridine carboxamide], in assay [1], the “herbicidal activity rating, SN” value is on record as 5 (percentage of weeds killed was not less than 80%). Also, the “herbicidal activity rating, GA” value in assay [2] is on record as 5 (percentage of weeds killed was not less than 80%). Moreover, the “herbicidal activity rating, BP” value in assay [3] was 2 (percentage of weeds killed was not less than 20% and less than 40%). In assay [4], the “herbicidal activity rating, SM” value was 4 (percentage of weeds killed was not less than 60% and less than 80%). In addition, the “herbicidal activity rating, CA” value in [5] was 5 (percentage of weeds killed was not less than 80%). In addition, the “herbicidal activity rating, VH” value in [6] was 5 (percentage of weeds killed was not less than 80%). Further, the “herbicidal activity rating, SA” value in assay [7] is on record as 5 (percentage of weeds killed was not less than 80%). The “herbicidal activity rating, AR” value in [8] is listed as 5 (percentage of weeds killed was not less than 80%). Also, in assay [9], the “herbicidal activity rating, CO” value was 5 (percentage of weeds killed was not less than 80%). For the same compound, in assay [10], the “herbicidal activity rating, AT (Abutilon theophrasti)” value was 4 (percentage of weeds killed was not less than 60% and less than 80%). Further, in assay [11], the “herbicidal activity rating, MC” value was 3 (percentage of weeds killed was not less than 40% and less than 60%).
Turning to `CCOc1cc(Oc2cccc(C(F)(F)F)c2)nc(C(=O)NC(C)C)c1` [Compound I-59], the “herbicidal activity rating, SN” value in assay [1] is 5 (percentage of weeds killed was not less than 80%). Moreover, in [2], the “herbicidal activity rating, GA” value is 5 (percentage of weeds killed was not less than 80%). Further, the “herbicidal activity rating, BP” value in assay [3] is 3 (percentage of weeds killed was not less than 40% and less than 60%). The “herbicidal activity rating, SM” value in assay [4] is on record as 5 (percentage of weeds killed was not less than 80%). Besides, in [5], the “herbicidal activity rating, CA” value is 4 (percentage of weeds killed was not less than 60% and less than 80%). For the same compound, the “herbicidal activity rating, VH” value in [6] is recorded as 5 (percentage of weeds killed was not less than 80%). Further, the “herbicidal activity rating, SA” value in assay [7] is listed as 5 (percentage of weeds killed was not less than 80%). Further, the “herbicidal activity rating, AR” value in [8] is 5 (percentage of weeds killed was not less than 80%). In assay [9], the “herbicidal activity rating, CO” value is given as 5 (percentage of weeds killed was not less than 80%). Also, the “herbicidal activity rating, AT (Abutilon theophrasti)” value in [10] was 4 (percentage of weeds killed was not less than 60% and less than 80%). The “herbicidal activity rating, MC” value in [11] is 4 (percentage of weeds killed was not less than 60% and less than 80%).
Take `COCCNC(=O)c1cc(OC)cc(Oc2cccc(C(F)(F)F)c2)n1` [Compound I-61]: the “herbicidal activity rating, SN” value in assay [1] was 5 (percentage of weeds killed was not less than 80%). Also, the “herbicidal activity rating, GA” value in [2] is on record as 5 (percentage of weeds killed was not less than 80%). Moreover, in assay [3], the “herbicidal activity rating, BP” value is 2 (percentage of weeds killed was not less than 20% and less than 40%). Moreover, the “herbicidal activity rating, SM” value in assay [4] is 5 (percentage of weeds killed was not less than 80%). Moreover, the “herbicidal activity rating, CA” value in assay [5] is 3 (percentage of weeds killed was not less than 40% and less than 60%). Moreover, in [6], the “herbicidal activity rating, VH” value was 5 (percentage of weeds killed was not less than 80%). In assay [7], the “herbicidal activity rating, SA” value is 5 (percentage of weeds killed was not less than 80%). Besides, the “herbicidal activity rating, AR” value in [8] is 5 (percentage of weeds killed was not less than 80%). Moreover, in assay [9], the “herbicidal activity rating, CO” value is listed as 5 (percentage of weeds killed was not less than 80%). Also, in assay [10], the “herbicidal activity rating, AT (Abutilon theophrasti)” value was 4 (percentage of weeds killed was not less than 60% and less than 80%). Moreover, in assay [11], the “herbicidal activity rating, MC” value is reported as 5 (percentage of weeds killed was not less than 80%).
On to `COc1cc(Oc2cccc(C(F)(F)F)c2)nc(C(=O)NCCSC)c1` [Compound I-62], for which the “herbicidal activity rating, SN” value in assay [1] is 5 (percentage of weeds killed was not less than 80%). For the same compound, the “herbicidal activity rating, GA” value in assay [2] is on record as 5 (percentage of weeds killed was not less than 80%). Moreover, in assay [3], the “herbicidal activity rating, BP” value was 4 (percentage of weeds killed was not less than 60% and less than 80%). The “herbicidal activity rating, SM” value in assay [4] was 5 (percentage of weeds killed was not less than 80%). Moreover, in assay [5], the “herbicidal activity rating, CA” value was 4 (percentage of weeds killed was not less than 60% and less than 80%). Moreover, the “herbicidal activity rating, VH” value in [6] is 5 (percentage of weeds killed was not less than 80%). Also, the “herbicidal activity rating, SA” value in assay [7] is on record as 5 (percentage of weeds killed was not less than 80%). Also, the “herbicidal activity rating, AR” value in assay [8] is 5 (percentage of weeds killed was not less than 80%). Moreover, the “herbicidal activity rating, CO” value in [9] was 5 (percentage of weeds killed was not less than 80%). In addition, the “herbicidal activity rating, AT (Abutilon theophrasti)” value in assay [10] is 3 (percentage of weeds killed was not less than 40% and less than 60%). Further, in [11], the “herbicidal activity rating, MC” value is 4 (percentage of weeds killed was not less than 60% and less than 80%).
As for `COc1cc(Oc2cccc(C(F)(F)F)c2)nc(C(=O)NCCS(C)(=O)=O)c1` [Compound I-63], in [1], the “herbicidal activity rating, SN” value was 5 (percentage of weeds killed was not less than 80%). In addition, in assay [2], the “herbicidal activity rating, GA” value is reported as 5 (percentage of weeds killed was not less than 80%). The “herbicidal activity rating, BP” value in assay [3] was 4 (percentage of weeds killed was not less than 60% and less than 80%). For the same compound, the “herbicidal activity rating, SM” value in assay [4] is reported as 5 (percentage of weeds killed was not less than 80%). The “herbicidal activity rating, CA” value in assay [5] is reported as 5 (percentage of weeds killed was not less than 80%). Besides, the “herbicidal activity rating, VH” value in assay [6] is 5 (percentage of weeds killed was not less than 80%). Moreover, in assay [7], the “herbicidal activity rating, SA” value is 5 (percentage of weeds killed was not less than 80%). In addition, the “herbicidal activity rating, AR” value in assay [8] was 5 (percentage of weeds killed was not less than 80%). The “herbicidal activity rating, CO” value in assay [9] is reported as 5 (percentage of weeds killed was not less than 80%). Also, in assay [10], the “herbicidal activity rating, AT (Abutilon theophrasti)” value was 4 (percentage of weeds killed was not less than 60% and less than 80%). Besides, the “herbicidal activity rating, MC” value in assay [11] is 4 (percentage of weeds killed was not less than 60% and less than 80%).
Take `CCSCCNC(=O)c1cc(OC)cc(Oc2cccc(C(F)(F)F)c2)n1` [Compound I-67, N-{2-(ethylmercapto)ethyl}-4-methoxy-6-{3-(trifluoromethyl)phenoxy}-2-pyridine carboxamide]: the “herbicidal activity rating, SN” value in [1] is on record as 5 (percentage of weeds killed was not less than 80%). The “herbicidal activity rating, GA” value in [2] was 5 (percentage of weeds killed was not less than 80%). Moreover, the “herbicidal activity rating, BP” value in [3] was 3 (percentage of weeds killed was not less than 40% and less than 60%). Moreover, the “herbicidal activity rating, SM” value in [4] was 4 (percentage of weeds killed was not less than 60% and less than 80%). Moreover, in assay [5], the “herbicidal activity rating, CA” value is given as 5 (percentage of weeds killed was not less than 80%). Moreover, in assay [6], the “herbicidal activity rating, VH” value is on record as 5 (percentage of weeds killed was not less than 80%). In assay [7], the “herbicidal activity rating, SA” value is reported as 5 (percentage of weeds killed was not less than 80%). In [8], the “herbicidal activity rating, AR” value is given as 5 (percentage of weeds killed was not less than 80%). Also, the “herbicidal activity rating, CO” value in [9] is listed as 5 (percentage of weeds killed was not less than 80%). In addition, the “herbicidal activity rating, AT (Abutilon theophrasti)” value in assay [10] was 4 (percentage of weeds killed was not less than 60% and less than 80%). Further, in assay [11], the “herbicidal activity rating, MC” value was 3 (percentage of weeds killed was not less than 40% and less than 60%).
